Results published in ChEMBL document CHEMBL4118098, “Discovery of DS28120313 as a potent orally active hepcidin production inhibitor: Design and optimization of novel 4,6-disubstituted indazole derivatives” (Bioorg Med Chem Lett, 2017).

Key:
[1] = biological target: T1, Testis-specific serine/threonine-protein kinase 1 (Homo sapiens) (UniProt Q9BXA7); assay: Inhibition of TSSK1 (unknown origin) at 0.19 uM relative to control
T1 sequence (whole entry): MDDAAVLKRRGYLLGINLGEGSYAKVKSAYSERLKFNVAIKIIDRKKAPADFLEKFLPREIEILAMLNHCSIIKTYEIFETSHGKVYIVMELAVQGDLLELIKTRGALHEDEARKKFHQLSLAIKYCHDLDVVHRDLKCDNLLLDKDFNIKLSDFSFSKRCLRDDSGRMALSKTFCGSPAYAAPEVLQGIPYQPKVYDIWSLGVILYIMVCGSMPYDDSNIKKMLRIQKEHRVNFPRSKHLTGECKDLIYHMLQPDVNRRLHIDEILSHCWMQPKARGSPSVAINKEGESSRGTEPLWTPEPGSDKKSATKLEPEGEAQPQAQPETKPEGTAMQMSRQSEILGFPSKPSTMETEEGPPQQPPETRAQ

[2] = test system: Tyrosine-protein kinase ABL1 (Homo sapiens), P00519 [Y253F]; assay: Inhibition of ABL1 Y253F mutant (unknown origin) at 0.19 uM relative to control
[3] = biological target: CDK6/cyclin D3 (Homo sapiens) (UniProt P30281+Q00534); assay: Inhibition of CDK6/CyclinD3 (unknown origin) at 0.19 uM relative to control; type: protein-complex assay
[4] = biological target: MAP kinase-interacting serine/threonine-protein kinase 1 (Homo sapiens) (UniProt Q9BUB5); assay: Inhibition of MNK1 (unknown origin) at 0.19 uM relative to control
Chain of MAP kinase-interacting serine/threonine-protein kinase 1 (Homo sapiens) (Q9BUB5 whole entry, looked up): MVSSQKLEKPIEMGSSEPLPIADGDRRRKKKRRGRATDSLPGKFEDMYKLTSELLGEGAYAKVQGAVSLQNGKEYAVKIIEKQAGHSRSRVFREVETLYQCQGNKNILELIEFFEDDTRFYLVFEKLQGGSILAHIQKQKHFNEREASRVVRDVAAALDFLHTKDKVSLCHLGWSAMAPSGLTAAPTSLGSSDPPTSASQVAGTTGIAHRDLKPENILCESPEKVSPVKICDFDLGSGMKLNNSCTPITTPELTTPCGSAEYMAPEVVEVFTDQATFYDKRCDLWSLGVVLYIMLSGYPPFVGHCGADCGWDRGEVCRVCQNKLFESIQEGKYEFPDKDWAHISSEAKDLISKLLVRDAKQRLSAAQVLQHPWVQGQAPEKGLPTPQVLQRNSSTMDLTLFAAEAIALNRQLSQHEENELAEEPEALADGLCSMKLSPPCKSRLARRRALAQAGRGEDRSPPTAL

[5] = Metabolic stability in pooled CD1 mouse liver microsomes assessed as parent compound remaining at 1 uM after 30 mins by LC-MS/MS analysis; type: ADME, microsome; conditions: read-out: Stability
[6] = biological target: Serine/threonine-protein kinase pim-2 (Homo sapiens) (UniProt Q9P1W9); assay: Inhibition of PIM2 (unknown origin) at 0.164 uM relative to control
Chain of Serine/threonine-protein kinase pim-2 (Homo sapiens) (Q9P1W9 whole entry, looked up): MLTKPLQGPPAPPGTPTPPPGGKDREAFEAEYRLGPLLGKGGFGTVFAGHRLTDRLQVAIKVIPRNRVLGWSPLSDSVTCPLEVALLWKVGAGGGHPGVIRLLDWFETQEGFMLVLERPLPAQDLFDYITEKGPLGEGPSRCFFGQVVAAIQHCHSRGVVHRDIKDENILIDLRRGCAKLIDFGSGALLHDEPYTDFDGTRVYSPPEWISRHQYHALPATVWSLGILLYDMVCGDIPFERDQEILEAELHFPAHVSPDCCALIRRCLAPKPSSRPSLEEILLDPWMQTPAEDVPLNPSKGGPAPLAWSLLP

[7] = biological target: Tyrosine-protein kinase Srms (Homo sapiens) (UniProt Q9H3Y6); assay: Inhibition of SRM (SRMS) (unknown origin) at 0.164 uM relative to control
Chain of Tyrosine-protein kinase Srms (Homo sapiens) (Q9H3Y6 whole entry): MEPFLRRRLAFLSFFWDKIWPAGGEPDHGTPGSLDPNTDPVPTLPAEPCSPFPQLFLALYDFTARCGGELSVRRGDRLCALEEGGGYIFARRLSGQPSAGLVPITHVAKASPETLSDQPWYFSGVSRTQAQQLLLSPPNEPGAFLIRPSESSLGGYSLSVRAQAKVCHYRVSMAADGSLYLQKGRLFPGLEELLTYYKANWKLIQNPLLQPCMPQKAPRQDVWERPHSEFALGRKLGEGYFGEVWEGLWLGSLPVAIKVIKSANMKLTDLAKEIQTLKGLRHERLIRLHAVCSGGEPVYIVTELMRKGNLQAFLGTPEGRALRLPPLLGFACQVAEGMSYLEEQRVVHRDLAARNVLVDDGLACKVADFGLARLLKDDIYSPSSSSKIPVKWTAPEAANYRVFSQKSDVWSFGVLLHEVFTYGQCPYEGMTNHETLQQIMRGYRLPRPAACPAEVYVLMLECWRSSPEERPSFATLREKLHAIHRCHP

[8] = biological target: T2, Protein kinase C iota type (Homo sapiens) (UniProt P41743); assay: Inhibition of PKC-iota (unknown origin) at 0.164 uM relative to control
T2 sequence (whole entry): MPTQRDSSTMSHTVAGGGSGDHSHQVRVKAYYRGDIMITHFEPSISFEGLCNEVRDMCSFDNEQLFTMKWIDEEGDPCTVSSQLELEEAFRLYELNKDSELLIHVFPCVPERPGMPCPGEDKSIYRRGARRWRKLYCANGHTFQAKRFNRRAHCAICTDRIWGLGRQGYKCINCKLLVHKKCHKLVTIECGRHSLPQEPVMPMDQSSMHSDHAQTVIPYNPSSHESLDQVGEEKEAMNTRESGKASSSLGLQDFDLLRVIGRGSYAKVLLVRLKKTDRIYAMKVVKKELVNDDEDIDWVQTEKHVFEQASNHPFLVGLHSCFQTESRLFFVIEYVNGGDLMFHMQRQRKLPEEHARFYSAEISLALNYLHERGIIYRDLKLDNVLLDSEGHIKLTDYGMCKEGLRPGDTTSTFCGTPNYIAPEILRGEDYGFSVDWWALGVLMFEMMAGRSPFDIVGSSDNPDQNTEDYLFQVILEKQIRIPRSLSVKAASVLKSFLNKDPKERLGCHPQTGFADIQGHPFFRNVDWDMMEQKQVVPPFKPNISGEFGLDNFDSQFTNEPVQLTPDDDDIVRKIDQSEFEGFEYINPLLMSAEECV

[9] = biological target: Tyrosine-protein kinase ABL2 (Homo sapiens) (UniProt P42684); assay: Inhibition of Arg (unknown origin) at 0.164 uM relative to control
Chain of Tyrosine-protein kinase ABL2 (Homo sapiens) (P42684 whole entry): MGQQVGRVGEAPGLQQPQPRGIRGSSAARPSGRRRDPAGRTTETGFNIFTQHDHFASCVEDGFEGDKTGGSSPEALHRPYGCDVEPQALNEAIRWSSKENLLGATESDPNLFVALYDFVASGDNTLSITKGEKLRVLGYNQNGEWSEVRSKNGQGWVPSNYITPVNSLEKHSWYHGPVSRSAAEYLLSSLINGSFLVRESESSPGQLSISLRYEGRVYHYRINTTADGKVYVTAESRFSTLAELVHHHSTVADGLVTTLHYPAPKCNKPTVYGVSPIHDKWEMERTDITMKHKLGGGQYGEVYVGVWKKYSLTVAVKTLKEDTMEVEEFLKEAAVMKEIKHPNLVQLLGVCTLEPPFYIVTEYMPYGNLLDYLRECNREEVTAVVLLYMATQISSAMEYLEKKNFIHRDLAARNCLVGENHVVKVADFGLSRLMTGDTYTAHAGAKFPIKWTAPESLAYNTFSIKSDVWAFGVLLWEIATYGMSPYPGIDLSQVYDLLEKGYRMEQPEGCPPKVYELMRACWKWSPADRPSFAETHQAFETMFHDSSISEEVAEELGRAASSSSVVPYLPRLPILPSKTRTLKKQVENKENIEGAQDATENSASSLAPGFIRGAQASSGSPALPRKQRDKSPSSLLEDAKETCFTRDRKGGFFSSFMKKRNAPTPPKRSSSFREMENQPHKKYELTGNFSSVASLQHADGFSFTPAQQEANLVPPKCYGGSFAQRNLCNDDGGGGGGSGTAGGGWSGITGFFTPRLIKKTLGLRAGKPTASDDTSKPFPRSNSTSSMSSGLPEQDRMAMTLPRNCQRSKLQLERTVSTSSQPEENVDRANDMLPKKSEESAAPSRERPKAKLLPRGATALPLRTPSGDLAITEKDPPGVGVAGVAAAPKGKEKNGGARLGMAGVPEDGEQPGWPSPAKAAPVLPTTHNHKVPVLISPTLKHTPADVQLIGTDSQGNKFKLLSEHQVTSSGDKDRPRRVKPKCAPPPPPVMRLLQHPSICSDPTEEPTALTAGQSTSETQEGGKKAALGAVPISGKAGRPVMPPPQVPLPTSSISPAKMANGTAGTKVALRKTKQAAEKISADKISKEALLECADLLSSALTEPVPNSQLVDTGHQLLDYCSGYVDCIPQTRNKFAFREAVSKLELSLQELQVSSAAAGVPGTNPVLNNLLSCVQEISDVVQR

[10] = biological target: Insulin receptor (Homo sapiens) (UniProt P06213); assay: Inhibition of INSR (unknown origin) at 0.164 uM relative to control
Chain of Insulin receptor (Homo sapiens) (P06213 28-758 limits assumed): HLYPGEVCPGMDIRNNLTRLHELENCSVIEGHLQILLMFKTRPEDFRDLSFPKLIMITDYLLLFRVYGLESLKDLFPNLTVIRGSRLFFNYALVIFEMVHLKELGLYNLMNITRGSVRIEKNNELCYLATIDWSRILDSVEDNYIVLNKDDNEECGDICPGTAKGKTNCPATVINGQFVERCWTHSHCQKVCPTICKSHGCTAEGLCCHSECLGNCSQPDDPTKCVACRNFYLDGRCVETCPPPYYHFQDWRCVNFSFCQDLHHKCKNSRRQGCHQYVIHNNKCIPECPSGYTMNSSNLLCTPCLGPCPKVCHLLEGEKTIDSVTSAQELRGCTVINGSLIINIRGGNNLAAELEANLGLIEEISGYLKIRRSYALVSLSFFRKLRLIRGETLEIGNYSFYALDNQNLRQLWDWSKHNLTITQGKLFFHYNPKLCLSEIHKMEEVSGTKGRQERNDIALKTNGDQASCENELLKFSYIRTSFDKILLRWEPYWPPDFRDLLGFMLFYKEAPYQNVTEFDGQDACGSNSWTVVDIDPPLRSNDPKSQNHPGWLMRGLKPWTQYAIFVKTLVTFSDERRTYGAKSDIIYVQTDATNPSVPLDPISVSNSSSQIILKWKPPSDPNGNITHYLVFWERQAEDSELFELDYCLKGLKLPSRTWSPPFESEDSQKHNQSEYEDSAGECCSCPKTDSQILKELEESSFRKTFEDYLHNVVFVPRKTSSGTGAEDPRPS
Chain of Insulin receptor (Homo sapiens) (P06213 763-1382 limits assumed): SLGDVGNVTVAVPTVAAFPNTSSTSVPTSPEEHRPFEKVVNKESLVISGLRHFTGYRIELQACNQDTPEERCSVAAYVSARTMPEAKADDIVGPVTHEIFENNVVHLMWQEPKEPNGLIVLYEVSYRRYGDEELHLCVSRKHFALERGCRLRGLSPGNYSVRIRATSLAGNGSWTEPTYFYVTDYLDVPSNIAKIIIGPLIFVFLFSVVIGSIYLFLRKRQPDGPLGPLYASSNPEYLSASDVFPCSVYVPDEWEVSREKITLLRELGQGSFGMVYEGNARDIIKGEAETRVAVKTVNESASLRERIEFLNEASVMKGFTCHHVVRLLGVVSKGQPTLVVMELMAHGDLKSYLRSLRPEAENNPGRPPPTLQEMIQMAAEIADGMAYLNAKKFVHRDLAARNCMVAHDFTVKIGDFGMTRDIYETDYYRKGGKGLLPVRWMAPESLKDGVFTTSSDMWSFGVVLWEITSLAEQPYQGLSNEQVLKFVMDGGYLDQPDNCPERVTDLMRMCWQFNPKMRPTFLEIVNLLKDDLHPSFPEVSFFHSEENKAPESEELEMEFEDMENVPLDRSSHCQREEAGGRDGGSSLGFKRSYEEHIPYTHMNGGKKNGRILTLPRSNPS

With `Cc1[nH]nc(C2CC2)c1-c1ccc2c(-c3ccc(N4CCN(C)CC4)nc3)n[nH]c2c1` the inhibition [1] was -6.3%, the inhibition [2] was 69.3% and the inhibition [3] was -2%. The inhibition [4] was -1%.
For `COC(=O)Nc1cc(-c2c(C3CC3)n[nH]c2C)cc2[nH]ncc12`, the remaining at 0.5 h, 1 µM [5] was 84%, the inhibition [6] was -6% and the inhibition [7] was 3.3%. It also gave an inhibition [8] of -2.3%, an inhibition [9] of 0.7% and an inhibition [10] of -6%.
